From patent US7727731B2, “Potent, selective and non toxic c-kit inhibitors” (AB Science, priority 2001, dated 2010)

Assays:
[1] = target: T1, c-kit carrying the 814 mutation (Mus musculus, UniProt P05532, D818V); test: Proliferation test, IC2 D814V cells; assay type: cell-based, murine; details: doses inferior to toxicity level (<10 μM)
T1 construct: expressed in transfected cells; host or cells: IC2 murine mast cell line
Experimental: We have tested 37 compounds that are indolinone derivatives in different cell lines and successive screening to select interesting inhibitors. • Method: select the compounds which are effectively c-kit inhibitors (Table 1) Each compound has been tested at a high dose (10 μM) on cell expressing • c-kit carrying the 814 mutation • SCF activated c-kit wild • control cells cultivated in IL-3.
The effect of the 21 inhibitors has been tested at decreasing concentrations (10-10^−1-10^−2 μM) in order to reveal compounds that are able at 1 μM to inhibit proliferation of the IC2 D814V line while preserving response to another stimulus (IL-3, toxicity control).
The nine compounds selected have been tested at narrower doses: between 0.1 and 1 μM. At this stage, the three most efficient compounds at lower doses have been selected (≦0.6 μM): 11, 14 and 35.
(§1) Table set up according to CPM (Counts Per Minutes) percentage obtained after proliferation in absence of inhibitors as 100% (% CPM>80=−−/50<% CPM<80=−/20<% CPM <50=+/5<% CPM<20=+/%-CPM<5=++). All experiments were done in triplicate.

[2] = target: T2, FMA3 (deletion 7aa. juxtamembrane) (Mus musculus, UniProt P05532, DEL577-583); test: Proliferation test, FMA3 cells; assay type: cell-based; details: doses inferior to toxicity level (<10 μM)
T2 construct: endogenous in cells; host or cells: FMA3 mouse mastocytoma cells
From the text: (§2) Juxtamembrane Mutations • Ba/F3-KitΔ27 (transfected juxtamembrane mutation—identified at the Laboratory) • Ba/F3-KitG559 (transfected juxtamembrane mutation) • FMA3 (deletion 7aa. juxtamembrane identified in a mouse mastocytome)

814 mutant c-kit = test: c-kit phosphorylation after immunoprecipitation, 814 mutant; assay type: cell-based
Experimental: (§3) First step: cellular proliferation to select molecules which are able to slowdown or stop cellular growth induced by c-kit activation. Here, SCF activated c-kit is used. Then, the effect of these molecules is analyzed by biochemistry techniques (immuno precipitations and western-blots), so that to determine if the inhibitor acts directly on the receptor c-kit or on other proteins, which are mediators of Kit signals. In a second step, a subset of molecules identified is selected in a cellular test on IL-3 dependant cells cultured in presence of IL-3. molecules that are not toxic are identified as potent specific c-kit inhibitors for a use in therapy.
(§4) The first step of c-kit activation consists of receptor phosphorylation on tyrosine residues. Thus, the phosphorylation state is a measure of receptor activation. By using specific antibodies, c-kit has been isolated by immunoprecipitation and c-kit phosphorylation has been determined using common procedures.

[3] = test system: c-kit carrying one of the juxtamembrane mutations (Δ27); test: Proliferation test, Ba/F3 Δ27 cells; assay type: cell-based, murine; details: doses inferior to toxicity level (<10 μM)
From the text: (§5) Two types of cell lines carrying wild or mutated forms of c-kit are available lines derived from mastocytomes and the Ba/F3 cell model (cells depending on IL-3). In the Ba/F3 cells, the expression of c-kit removes the dependence vis-a-vis IL-3. Consequently, cDNA of wild or mutated murine c-kit has been introduced and these cells proliferate either in presence of SCF in case of c-kit wild or in absence of any growth factor in case of activated mutant c-kit.
as §2
Cells expressing c-kit carrying one of the juxtamembrane mutations (Δ27) were also used as a control.
as §1

SCF activated c-kit wild = target: T3, SCF activated c-kit wild (Mus musculus, UniProt P05532); test: Proliferation test, Ba/F3 Kit cells with SCF; assay type: cell-based, murine; details: doses inferior to toxicity level (<10 μM)
T3 construct: expressed in transfected cells; host or cells: Ba/F3 (murine, IL-3 dependent)
Experimental: as §3, §5
Preparation of cell lines • Ba/F3-Kit: Ba/F3 cells in which Kit gene, mutated or wild, has been introduced. They proliferate either in presence of Kit ligand (SCF) or in presence of IL-3. […]

[4] = test system: mutant in a human mast cell leukemia cell line (HMC-1, expressing a juxtamembrane mutation); details: cited from earlier work
[5] = test system: c-kit bearing juxtamembrane mutations; test: c-kit phosphorylation after immunoprecipitation, juxtamembrane mutants; assay type: cell-based
Experimental: as §3, §4

c-kit wild = c-kit wild (Mus musculus, UniProt P05532); test: c-kit phosphorylation after immunoprecipitation, c-kit wild; assay type: cell-based
Experimental: as §3, §4

T1 sequence (P05532 25-975 isoform P05532-2 D814V limits assumed): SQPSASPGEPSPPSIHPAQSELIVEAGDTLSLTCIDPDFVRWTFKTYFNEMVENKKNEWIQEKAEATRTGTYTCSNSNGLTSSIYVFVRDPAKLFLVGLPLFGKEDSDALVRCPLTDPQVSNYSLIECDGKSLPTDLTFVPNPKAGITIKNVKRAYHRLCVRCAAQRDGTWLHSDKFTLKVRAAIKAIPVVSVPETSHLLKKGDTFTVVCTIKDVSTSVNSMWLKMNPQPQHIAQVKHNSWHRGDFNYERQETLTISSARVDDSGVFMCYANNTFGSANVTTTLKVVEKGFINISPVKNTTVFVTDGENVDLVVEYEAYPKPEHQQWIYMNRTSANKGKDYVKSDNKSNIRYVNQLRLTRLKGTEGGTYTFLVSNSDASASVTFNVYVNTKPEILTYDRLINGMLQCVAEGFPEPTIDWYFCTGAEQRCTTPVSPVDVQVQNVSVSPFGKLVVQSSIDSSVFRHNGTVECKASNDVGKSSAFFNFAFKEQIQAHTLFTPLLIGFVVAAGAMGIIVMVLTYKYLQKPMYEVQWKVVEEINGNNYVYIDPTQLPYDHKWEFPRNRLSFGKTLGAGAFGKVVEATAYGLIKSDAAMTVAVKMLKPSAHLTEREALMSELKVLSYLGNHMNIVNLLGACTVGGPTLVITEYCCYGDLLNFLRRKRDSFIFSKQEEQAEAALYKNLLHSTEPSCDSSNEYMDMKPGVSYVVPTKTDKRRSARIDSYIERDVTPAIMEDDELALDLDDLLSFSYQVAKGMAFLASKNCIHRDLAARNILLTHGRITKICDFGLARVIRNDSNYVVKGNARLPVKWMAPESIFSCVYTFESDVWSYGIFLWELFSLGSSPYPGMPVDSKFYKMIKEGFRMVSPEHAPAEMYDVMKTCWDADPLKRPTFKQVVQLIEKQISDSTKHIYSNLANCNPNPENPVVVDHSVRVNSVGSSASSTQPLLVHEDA
T2 sequence (P05532 with tags, fused parts or gaps isoform P05532-2 DEL573-579): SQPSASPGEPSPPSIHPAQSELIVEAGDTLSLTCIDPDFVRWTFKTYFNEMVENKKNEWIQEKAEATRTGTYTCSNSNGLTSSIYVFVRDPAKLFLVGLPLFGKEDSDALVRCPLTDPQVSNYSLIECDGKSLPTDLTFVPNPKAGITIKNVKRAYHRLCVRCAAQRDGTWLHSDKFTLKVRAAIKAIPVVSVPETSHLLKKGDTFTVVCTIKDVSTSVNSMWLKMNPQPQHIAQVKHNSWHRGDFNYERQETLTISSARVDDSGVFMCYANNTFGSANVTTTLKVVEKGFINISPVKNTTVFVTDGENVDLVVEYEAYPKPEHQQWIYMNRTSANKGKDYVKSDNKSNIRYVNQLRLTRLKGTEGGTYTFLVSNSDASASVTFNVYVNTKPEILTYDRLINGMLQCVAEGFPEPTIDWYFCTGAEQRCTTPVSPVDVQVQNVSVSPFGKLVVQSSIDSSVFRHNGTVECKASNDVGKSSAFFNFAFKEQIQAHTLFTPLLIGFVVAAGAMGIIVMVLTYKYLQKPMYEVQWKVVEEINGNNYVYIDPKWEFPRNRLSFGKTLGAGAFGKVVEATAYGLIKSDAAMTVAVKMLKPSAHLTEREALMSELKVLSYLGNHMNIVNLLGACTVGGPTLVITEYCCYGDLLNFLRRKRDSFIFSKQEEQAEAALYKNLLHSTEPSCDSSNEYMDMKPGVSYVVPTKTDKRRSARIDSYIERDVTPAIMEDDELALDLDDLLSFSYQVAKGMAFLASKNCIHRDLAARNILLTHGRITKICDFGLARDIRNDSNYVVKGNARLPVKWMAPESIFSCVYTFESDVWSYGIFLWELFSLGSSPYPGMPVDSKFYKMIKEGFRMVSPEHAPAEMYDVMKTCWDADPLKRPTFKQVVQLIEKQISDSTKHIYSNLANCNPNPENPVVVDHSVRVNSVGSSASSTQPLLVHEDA
c-kit bearing juxtamembrane mutations, sequence (P05532 592-939 limits assumed, change not shown): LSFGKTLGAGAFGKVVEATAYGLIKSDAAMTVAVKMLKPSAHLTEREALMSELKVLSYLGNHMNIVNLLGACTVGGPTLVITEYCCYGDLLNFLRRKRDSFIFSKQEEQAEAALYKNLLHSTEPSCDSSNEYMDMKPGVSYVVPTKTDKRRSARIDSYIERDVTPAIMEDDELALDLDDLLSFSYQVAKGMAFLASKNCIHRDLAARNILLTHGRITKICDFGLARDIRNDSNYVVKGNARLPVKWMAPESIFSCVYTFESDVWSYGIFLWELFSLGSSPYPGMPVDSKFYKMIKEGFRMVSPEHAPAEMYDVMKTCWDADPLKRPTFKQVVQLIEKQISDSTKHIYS
T3 sequence (P05532 25-975 isoform P05532-2 limits assumed): as the sequence (P05532 25-975 isoform P05532-2 D814V limits assumed) above, with V790D counted along it
c-kit wild, sequence (P05532 25-975 isoform P05532-2 limits assumed): as the sequence (P05532 25-975 isoform P05532-2 D814V limits assumed) above, with V790D counted along it

## STI 571
[1]
  Effect on proliferation of cells carrying 814 mutation, IC2: not the proliferation of cells carrying 814 mutation
[2]
  Effect on proliferation, juxtamembrane mutation FMA3: inhibits totally the proliferation
814 mutant c-kit
  Phosphorylation of the 814 mutant c-kit: is not reduced
[3]
  Effect on proliferation, juxtamembrane mutation Δ27: inhibits totally the proliferation
SCF activated c-kit wild
  Effect on proliferation depending on c-kit wild: inhibits totally the proliferation
[4]
  Inhibitory effect on kinase activity of HMC-1 mutant compared with ligand-dependent activation of the wild-type receptor: more potent inhibitory effect
[5]
  Phosphorylation of c-kit bearing juxtamembrane mutations: considerably reduces the phosphorylation
c-kit wild
  Phosphorylation of c-kit wild: considerably reduces the phosphorylation
